Data set [1] relates to Rattus norvegicus. Kind of data set: Antiinflammatory activity against carrageenan-induced fisher 344 rat paw edema model assessed as reduction of paw volume at 50 mg/kg, ip after 3.5 hrs by plethysmometer. In kind it is functional. Conditions: fisher 344, ip, route intraperitoneal.
Data set [2] relates to Rattus norvegicus. As to the kind of experiment: Antiinflammatory activity against carrageenan-induced fisher 344 rat paw edema model assessed as inhibition of granuloma. It is filed as functional, organism-based.
Data set [3] can be described thus: Acute toxicity in ip dosed albino mouse after 24 hrs. In kind it is organism-based. Conditions: in vivo.
The test system of data set [4] is Mus musculus. Kind of data set: Toxicity in albino mouse assessed as mortality at 500 to 1000 mg/kg, ip after 24 hrs. It is filed as organism-based. Also noted: dose 500-1000 mg/kg, route intraperitoneal. Conditions: in vivo.
Data set [5] relates to Mus musculus. As to the kind of experiment: Toxicity in albino mouse assessed as toxic symptom at 500 to 1000 mg/kg, ip after 24 hrs. It is filed as organism-based. The arrangement: dose 500-1000 mg/kg, route intraperitoneal. The following applies: in vivo.
Data set [6] relates to Rattus norvegicus. Kind of data set: Antiinflammatory activity against carrageenan-induced fisher 344 rat paw edema model assessed as inhibition of granuloma at 100 mg/kg. In kind it is functional. For orientation: The carrageenan paw model is a standard test of acute inflammation.

Experimental findings from ChEMBL document CHEMBL1275304, “Use of phosphonyl carbanions in the synthesis of anti-inflammatory active phosphorus-containing fused heterocycles and relevance phosphonates” (Eur J Med Chem, 2010) are described below.

Structures are written as SMILES. Where only a bound is given, the exact number is not on record here.

With `CCOP1(=O)OC(C)=c2sc(C(C(=O)OC)P(=O)(OCC)OCC)cc2=C1C(=O)OC` (stereo not drawn), the inhibition in vivo at 50 mg/kg in the data set on Rattus norvegicus [1] was found to be 75.9%. The Activity result was “Dose-dependent effect” with Rattus norvegicus [2], “Non-toxic” with Mus musculus [4] and “Non-toxic” in the data set with Mus musculus [5]. This compound also came in with an LD50 at 24 h in data set [3] of more than 300 µmol/kg.

In the case of `COc1ccc2c(c1)c(CC(=O)O)c(C)n2C(=O)c1ccc(Cl)cc1` [INDOMETHACIN], the inhibition in vivo at 50 mg/kg with Rattus norvegicus [1] is 68.4%. The compound also displayed an LD50 at 24 h in data set [3] of more than 300 µmol/kg.

On to `CCOP(=O)(/C=C\c1cc2c(s1)=C(C)OP(=O)(OCC)C=2C)OCC` (stereo not drawn), for which the inhibition in vivo at 50 mg/kg with Rattus norvegicus [1] came to 87.6%. The median lethal dose (LD50) at 24 h in data set [3] was more than 300 µmol/kg. Besides, the Activity result in the data set with Mus musculus [4] and in the data set on Mus musculus [5] was “Non-toxic” in each case.

Regarding `CCOP1(=O)OC(C)=c2sc(Br)cc2=C1C(=O)OC` (stereo not drawn), the inhibition in vivo at 50 mg/kg in the data set with Rattus norvegicus [1] amounted to 68.1%. In addition, the inhibition in vivo at 100 mg/kg in the data set on Rattus norvegicus [6] stood at 68.1%. This compound yielded a median lethal dose (LD50) at 24 h in data set [3] of more than 300 µmol/kg.

`CCOP1(=O)OC2(C)C(=O)C=CC2(C)C1C#N` (stereo not drawn): the inhibition in vivo at 50 mg/kg in the data set on Rattus norvegicus [1] is 66.6%. Further, in the data set with Rattus norvegicus [6], the inhibition in vivo at 100 mg/kg is 66.6%. Further, the LD50 at 24 h in data set [3] is more than 300 µmol/kg.

As to `CCOC(=O)C1C2(C)C=CC(=O)C2(C)OP1(=O)OCC` (stereo not drawn), the inhibition in vivo at 50 mg/kg with Rattus norvegicus [1] came to 59.7%. The inhibition in vivo at 100 mg/kg with Rattus norvegicus [6] is 59.7%. The LD50 at 24 h in data set [3] is more than 300 µmol/kg.

Regarding `CCOP1(=O)OC(C)=c2sc(Br)cc2=C1C#N` (stereo not drawn), the inhibition in vivo at 50 mg/kg in the data set with Rattus norvegicus [1] was determined as 62.8%. For the same compound, the inhibition in vivo at 100 mg/kg in the data set with Rattus norvegicus [6] turned out to be 62.8%. In data set [3], the 50% lethal dose (LD50) at 24 h is more than 300 µmol/kg.

In the case of `CCOP1(=O)OC2(C)C(=O)C=CC2(C)C1C(=O)OC` (stereo not drawn), in the data set with Rattus norvegicus [1], the inhibition in vivo at 50 mg/kg stood at 63.2%. In addition, the inhibition in vivo at 100 mg/kg with Rattus norvegicus [6] turned out to be 63.2%. Moreover, the LD50 at 24 h in data set [3] is more than 300 µmol/kg.

For `CCOC(=O)C1=c2cc(C(C(=O)OCC)P(=O)(OCC)OCC)sc2=C(C)OP1(=O)OCC` (stereo not drawn), the inhibition in vivo at 50 mg/kg in the data set on Rattus norvegicus [1] is 76.1%. Moreover, the Activity result in the data set on Rattus norvegicus [2] was “Dose-dependent effect”; in the data set with Mus musculus [4] it was “Non-toxic”; in the data set with Mus musculus [5], “Non-toxic”. This compound registered an LD50 at 24 h in data set [3] of more than 300 µmol/kg.

Turning to `CCOP1(=O)OC(C)=c2sc(C(C#N)P(=O)(OCC)OCC)cc2=C1C#N` (stereo not drawn), the inhibition in vivo at 50 mg/kg in the data set on Rattus norvegicus [1] was found to be 81.1%. The compound further came in with an LD50 at 24 h in data set [3] of more than 300 µmol/kg. For the same compound, the Activity result with Mus musculus [4] and in the data set on Mus musculus [5] was “Non-toxic” throughout.

As to `CCOC(=O)C1=c2cc(Br)sc2=C(C)OP1(=O)OCC` (stereo not drawn), the inhibition in vivo at 50 mg/kg in the data set on Rattus norvegicus [1] came out at 60.4%. In the data set with Rattus norvegicus [6], the inhibition in vivo at 100 mg/kg turned out to be 60.4%. In data set [3], this compound had an LD50 at 24 h of more than 300 µmol/kg.

In general, inhibition in vivo refers to the change of the read-out against control, counted positive when it falls. What is called LD50 is the dose expected to kill half of the subjects tested. Read a high LD50 as a less toxic substance.
